Results taken from ChEMBL document CHEMBL5608176, “Binding sites and design strategies for small molecule GLP-1R agonists” (Eur J Med Chem, 2024).

Legend:
[1] = biological target: Voltage-gated inwardly rectifying potassium channel KCNH2 (Homo sapiens, UniProt Q12809); test: Inhibition of hERG potassium channel by patch clamp assay; assay type: toxicity
[2] = biological target: Glucagon-like peptide 1 receptor (Homo sapiens, UniProt P43220); test: Agonist activity at human GLP-1 expressed in HEK293 cells assessed as […] in intracellular cAMP accumulation incubated for 60 mins by HTRF assay; assay type: functional, cell-based
Glucagon-like peptide 1 receptor, sequence (P43220 whole entry): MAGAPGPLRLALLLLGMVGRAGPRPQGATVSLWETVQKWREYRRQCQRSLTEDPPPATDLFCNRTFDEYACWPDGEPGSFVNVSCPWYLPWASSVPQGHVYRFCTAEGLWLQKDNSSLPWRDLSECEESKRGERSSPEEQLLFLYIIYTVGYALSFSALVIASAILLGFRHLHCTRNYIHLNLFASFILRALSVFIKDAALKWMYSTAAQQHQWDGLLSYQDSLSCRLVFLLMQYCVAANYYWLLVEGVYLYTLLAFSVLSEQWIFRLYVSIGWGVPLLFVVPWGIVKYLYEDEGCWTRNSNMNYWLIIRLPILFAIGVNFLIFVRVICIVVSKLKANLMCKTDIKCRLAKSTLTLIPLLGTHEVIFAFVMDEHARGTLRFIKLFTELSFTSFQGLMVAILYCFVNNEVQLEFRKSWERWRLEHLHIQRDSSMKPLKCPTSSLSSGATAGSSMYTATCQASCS

Voltage-gated inwardly rectifying potassium channel KCNH2, sequence (Q12809 whole entry): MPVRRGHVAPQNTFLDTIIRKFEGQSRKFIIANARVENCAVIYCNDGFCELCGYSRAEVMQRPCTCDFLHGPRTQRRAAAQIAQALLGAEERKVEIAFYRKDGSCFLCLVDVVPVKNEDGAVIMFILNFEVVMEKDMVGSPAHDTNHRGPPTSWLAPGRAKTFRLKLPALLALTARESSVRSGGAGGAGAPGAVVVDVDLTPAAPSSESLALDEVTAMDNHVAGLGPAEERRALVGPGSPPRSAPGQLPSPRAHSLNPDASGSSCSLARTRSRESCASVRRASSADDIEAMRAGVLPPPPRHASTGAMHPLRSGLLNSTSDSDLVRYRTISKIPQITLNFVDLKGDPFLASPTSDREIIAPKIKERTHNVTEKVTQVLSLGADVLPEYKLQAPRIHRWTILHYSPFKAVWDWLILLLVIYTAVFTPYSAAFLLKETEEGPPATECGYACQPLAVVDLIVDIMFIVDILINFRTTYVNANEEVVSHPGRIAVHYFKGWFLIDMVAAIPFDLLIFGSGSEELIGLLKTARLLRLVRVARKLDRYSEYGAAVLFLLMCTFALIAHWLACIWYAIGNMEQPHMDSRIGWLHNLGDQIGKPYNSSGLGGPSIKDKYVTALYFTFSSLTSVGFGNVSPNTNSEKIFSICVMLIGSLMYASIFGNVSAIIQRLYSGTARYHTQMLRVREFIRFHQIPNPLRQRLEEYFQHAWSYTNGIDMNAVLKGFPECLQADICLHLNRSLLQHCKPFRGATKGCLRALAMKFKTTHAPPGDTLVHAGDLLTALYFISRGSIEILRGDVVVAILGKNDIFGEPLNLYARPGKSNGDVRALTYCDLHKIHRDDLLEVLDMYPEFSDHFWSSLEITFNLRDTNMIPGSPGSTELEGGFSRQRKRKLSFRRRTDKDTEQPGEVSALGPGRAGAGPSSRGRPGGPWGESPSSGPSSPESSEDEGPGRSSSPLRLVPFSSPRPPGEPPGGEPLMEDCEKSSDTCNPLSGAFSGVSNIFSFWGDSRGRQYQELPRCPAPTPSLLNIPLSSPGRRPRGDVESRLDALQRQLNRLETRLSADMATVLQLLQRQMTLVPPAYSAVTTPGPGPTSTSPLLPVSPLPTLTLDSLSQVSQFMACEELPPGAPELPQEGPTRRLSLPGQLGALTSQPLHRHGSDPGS

EC50 [2] | SMILES | EC50 [1]
– | Cn1c(CN2CCC(c3cccc(OCc4ccc(Cl)cc4F)n3)CC2)nc2ccncc21 | 77 nM
2.7 nM | COc1nccc(-c2ccc3c(c2)cc(C(=O)N2CCc4nn(-c5cc(C)c(F)c(C)c5)c(-n5ccn(-c6ccc7c(cnn7C)c6F)c5=O)c4[C@@H]2C)n3[C@@]2(c3noc(=O)[nH]3)C[C@@H]2C)c1C | –
2.1 nM | COCCn1ncc2c(F)c(-n3ccn(-c4c5c(nn4-c4cc(C)c(F)c(C)c4)CCN(C(=O)c4cc6cc([C@H]7CCOC(C)(C)C7)ccc6n4[C@@]4(c6noc(=O)[nH]6)C[C@@H]4C)[C@H]5C)c3=O)ccc21 | –
